# Results: patent US20200239398A1, “METHYLENE-CYCLOALKYLACETATE DERIVATIVES AND THEIR USE IN TREATMENT OF NEUROTROPIC CONDITIONS” (Yissum Research Development Company of The Hebrew …, priority 2018, published 2020)
# Like-named read-outs stand apart in the source and are kept apart here.
# Key:
# PC12 cells = experiment: Cytotoxicity (cell morphology, LDH release); format: cell-based; conditions: 10 μM
# [1] = biological target: Adenosine Receptor A2A (ADORA2A) (Homo sapiens, UniProt P29274); experiment: SAFETYscan ADORA2A Calcium Flux; format: cell-based; conditions: 10 μM HU-MCA-13, read-out: Maximal Response
# [2] = biological target: Adrenergic Receptor α1A (ADRA1A) (Homo sapiens, UniProt P35348); experiment: SAFETYscan ADRA1A Calcium Flux; format: cell-based; conditions: 10 μM HU-MCA-13, read-out: Maximal Response
# [3] = biological target: T1, Adrenergic Receptor α2A (ADRA2A) (Homo sapiens, UniProt P08913); experiment: SAFETYscan ADRA2A cAMP; format: cell-based; conditions: 10 μM HU-MCA-13
# T1 sequence (P08913 1-465): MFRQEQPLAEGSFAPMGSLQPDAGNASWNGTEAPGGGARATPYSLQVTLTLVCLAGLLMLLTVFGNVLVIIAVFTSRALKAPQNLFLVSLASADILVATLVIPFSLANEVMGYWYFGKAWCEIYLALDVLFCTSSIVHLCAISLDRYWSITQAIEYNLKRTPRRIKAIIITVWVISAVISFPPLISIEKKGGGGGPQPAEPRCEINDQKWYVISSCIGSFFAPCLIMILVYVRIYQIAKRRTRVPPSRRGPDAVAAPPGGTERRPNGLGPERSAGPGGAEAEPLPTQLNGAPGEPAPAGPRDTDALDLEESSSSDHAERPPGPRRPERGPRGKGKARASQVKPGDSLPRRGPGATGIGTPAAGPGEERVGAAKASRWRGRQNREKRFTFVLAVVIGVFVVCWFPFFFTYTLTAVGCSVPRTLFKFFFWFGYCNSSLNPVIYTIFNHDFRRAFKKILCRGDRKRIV
# [4] = biological target: Adrenergic Receptor β1 (ADRB1) (Homo sapiens, UniProt P08588); experiment: SAFETYscan ADRB1 cAMP; format: cell-based; conditions: 10 μM HU-MCA-13, read-out: Maximal Response
# [5] = biological target: Cholecystokinin Receptor A (CCKAR) (Homo sapiens, UniProt P32238); experiment: SAFETYscan CCKAR Calcium Flux; format: cell-based; conditions: 10 μM HU-MCA-13, read-out: Maximal Response
# [6] = biological target: Muscarinic acetylcholine Receptor M2 (CHRM2) (Homo sapiens, UniProt P08172); experiment: SAFETYscan CHRM2 cAMP; format: cell-based; conditions: 10 μM HU-MCA-13, read-out: Maximal Response
# [7] = biological target: Muscarinic acetylcholine Receptor M3 (CHRM3) (Homo sapiens, UniProt P20309); experiment: cell-based; conditions: 10 μM HU-MCA-13, read-out: Maximal Response
# [8] = biological target: Endothelin Receptor Type A (EDNRA) (Homo sapiens, UniProt P25101); experiment: SAFETYscan EDNRA Calcium Flux; format: cell-based; conditions: Agonist mode; 10 μM HU-MCA-13; read-out: Maximal Response
# [9] = biological target: Histamine Receptor H1 (HRH1) (Homo sapiens, UniProt P35367); experiment: SAFETYscan HRH1 Calcium Flux; format: cell-based; conditions: 10 μM HU-MCA-13, read-out: Maximal Response
# [10] = biological target: 5-Hydroxytryptamine (Serotonin) Receptor 1B (HTR1B) (Homo sapiens, UniProt P28222); experiment: SAFETYscan HTR1B cAMP; format: cell-based; conditions: 10 μM HU-MCA-13, read-out: Maximal Response
# [11] = biological target: Opioid Receptor Delta 1 (OPRD1) (Homo sapiens, UniProt P41143); experiment: SAFETYscan OPRD1 cAMP; format: cell-based; conditions: 10 μM HU-MCA-13, read-out: Maximal Response
# [12] = biological target: Opioid Receptor Kappa 1 (OPRK1) (Homo sapiens, UniProt P41145); experiment: SAFETYscan OPRK1 cAMP; format: cell-based; conditions: 10 μM HU-MCA-13, read-out: Maximal Response
# [13] = biological target: T2, 5-Hydroxytryptamine (Serotonin) Receptor 3A (HTR3A) (Homo sapiens, UniProt P46098); experiment: SAFETYscan HTR3A Ion channel; format: cell-based; conditions: 10 μM HU-MCA-13, read-out: Maximal Response
# T2 construct: DiscoverX (SAFETYscan contract panel)
# [14] = biological target: T3, Insulin Receptor (tyrosine kinase) (INSR) (Homo sapiens, UniProt P06213); experiment: SAFETYscan INSR kinase Binding; conditions: Inhibitor mode, 10 μM HU-MCA-13, read-out: Maximal Response
# T3 construct: DiscoverX (KINOMEscan)
# Cyclooxygenase 1 (COX 1) = biological target: T4, Cyclooxygenase 1 (COX 1) (Homo sapiens, UniProt P23219); experiment: SAFETYscan COX 1 Enzymatic; format: biochemical; conditions: Inhibitor mode; 10 μM HU-MCA-13; read-out: Maximal Response
# T4 construct: DiscoverX (SAFETYscan contract panel)
# [15] = biological target: T5, cAMP-specific 3′,5′-cyclic phosphodiesterase 4D2 (PDE4D2) (Homo sapiens, UniProt Q08499); experiment: SAFETYscan PDE4D2 Enzymatic; format: biochemical; conditions: Inhibitor mode; 10 μM HU-MCA-13; read-out: Maximal Response
# T5 construct: DiscoverX (SAFETYscan contract panel)
# [16] = biological target: T6, Norepinephrine transporter (NET) (Homo sapiens, UniProt P23975); experiment: SAFETYscan NET Transporter; format: cell-based; conditions: Blocker mode; 10 μM HU-MCA-13; read-out: Maximal Response
# T6 construct: DiscoverX (SAFETYscan contract panel)
# Chain of Opioid Receptor Kappa 1 (OPRK1) (P41145 whole entry): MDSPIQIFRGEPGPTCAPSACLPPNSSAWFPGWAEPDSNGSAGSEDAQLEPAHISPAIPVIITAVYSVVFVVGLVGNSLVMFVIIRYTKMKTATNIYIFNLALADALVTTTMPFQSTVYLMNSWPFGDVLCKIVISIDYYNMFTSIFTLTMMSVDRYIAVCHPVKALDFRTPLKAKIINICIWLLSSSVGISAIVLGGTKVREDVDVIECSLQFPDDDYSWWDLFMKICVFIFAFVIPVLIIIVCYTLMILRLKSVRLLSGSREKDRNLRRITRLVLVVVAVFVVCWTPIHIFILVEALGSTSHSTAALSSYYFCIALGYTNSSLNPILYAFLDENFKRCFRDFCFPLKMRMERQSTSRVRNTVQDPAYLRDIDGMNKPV
# Chain of Muscarinic acetylcholine Receptor M2 (CHRM2) (P08172 whole entry): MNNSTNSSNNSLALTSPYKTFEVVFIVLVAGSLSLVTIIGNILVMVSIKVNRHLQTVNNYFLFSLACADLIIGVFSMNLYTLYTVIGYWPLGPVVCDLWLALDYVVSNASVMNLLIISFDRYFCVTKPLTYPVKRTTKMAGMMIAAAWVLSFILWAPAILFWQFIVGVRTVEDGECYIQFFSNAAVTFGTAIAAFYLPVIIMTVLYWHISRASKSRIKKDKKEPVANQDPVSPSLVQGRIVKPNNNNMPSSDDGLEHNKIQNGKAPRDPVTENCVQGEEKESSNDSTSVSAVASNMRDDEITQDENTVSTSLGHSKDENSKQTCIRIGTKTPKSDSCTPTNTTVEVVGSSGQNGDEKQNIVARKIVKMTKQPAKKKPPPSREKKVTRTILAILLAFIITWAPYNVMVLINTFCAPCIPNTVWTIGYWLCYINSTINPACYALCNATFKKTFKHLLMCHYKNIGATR
# Chain of Opioid Receptor Delta 1 (OPRD1) (P41143 whole entry): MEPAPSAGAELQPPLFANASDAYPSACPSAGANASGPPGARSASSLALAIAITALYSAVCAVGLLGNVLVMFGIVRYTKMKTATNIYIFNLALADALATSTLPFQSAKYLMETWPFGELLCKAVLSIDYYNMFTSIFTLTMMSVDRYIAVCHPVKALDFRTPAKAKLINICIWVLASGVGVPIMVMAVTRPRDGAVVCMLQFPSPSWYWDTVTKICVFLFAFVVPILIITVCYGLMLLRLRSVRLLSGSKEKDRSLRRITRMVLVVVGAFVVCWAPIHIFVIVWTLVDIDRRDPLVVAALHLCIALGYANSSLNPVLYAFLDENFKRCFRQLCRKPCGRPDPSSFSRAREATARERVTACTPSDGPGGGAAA
# T2 sequence (P46098 24-478): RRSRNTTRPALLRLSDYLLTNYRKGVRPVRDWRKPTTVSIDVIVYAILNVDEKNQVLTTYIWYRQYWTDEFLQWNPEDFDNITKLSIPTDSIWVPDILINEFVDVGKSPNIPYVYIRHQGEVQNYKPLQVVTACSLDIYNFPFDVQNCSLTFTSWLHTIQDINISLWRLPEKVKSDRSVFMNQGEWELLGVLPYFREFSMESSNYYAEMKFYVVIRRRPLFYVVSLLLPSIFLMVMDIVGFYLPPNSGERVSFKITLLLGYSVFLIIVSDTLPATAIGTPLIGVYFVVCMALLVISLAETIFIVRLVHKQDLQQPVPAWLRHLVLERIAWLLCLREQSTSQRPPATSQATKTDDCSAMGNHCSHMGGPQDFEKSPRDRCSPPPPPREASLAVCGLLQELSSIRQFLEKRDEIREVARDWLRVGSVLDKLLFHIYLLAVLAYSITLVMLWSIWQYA
# Chain of Histamine Receptor H1 (HRH1) (P35367 whole entry): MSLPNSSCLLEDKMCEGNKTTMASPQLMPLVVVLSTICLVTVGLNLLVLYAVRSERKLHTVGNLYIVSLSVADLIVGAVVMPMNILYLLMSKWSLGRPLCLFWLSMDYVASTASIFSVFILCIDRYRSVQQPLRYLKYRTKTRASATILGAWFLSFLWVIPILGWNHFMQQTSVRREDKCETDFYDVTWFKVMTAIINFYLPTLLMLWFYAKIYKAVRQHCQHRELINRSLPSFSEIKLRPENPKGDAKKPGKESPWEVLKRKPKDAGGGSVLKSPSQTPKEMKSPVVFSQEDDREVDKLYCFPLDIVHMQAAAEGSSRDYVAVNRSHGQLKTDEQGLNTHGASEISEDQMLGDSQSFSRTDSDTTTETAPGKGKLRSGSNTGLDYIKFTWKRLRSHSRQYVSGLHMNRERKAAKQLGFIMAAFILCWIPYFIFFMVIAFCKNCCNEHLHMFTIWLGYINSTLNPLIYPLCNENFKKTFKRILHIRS
# Chain of Cholecystokinin Receptor A (CCKAR) (P32238 whole entry): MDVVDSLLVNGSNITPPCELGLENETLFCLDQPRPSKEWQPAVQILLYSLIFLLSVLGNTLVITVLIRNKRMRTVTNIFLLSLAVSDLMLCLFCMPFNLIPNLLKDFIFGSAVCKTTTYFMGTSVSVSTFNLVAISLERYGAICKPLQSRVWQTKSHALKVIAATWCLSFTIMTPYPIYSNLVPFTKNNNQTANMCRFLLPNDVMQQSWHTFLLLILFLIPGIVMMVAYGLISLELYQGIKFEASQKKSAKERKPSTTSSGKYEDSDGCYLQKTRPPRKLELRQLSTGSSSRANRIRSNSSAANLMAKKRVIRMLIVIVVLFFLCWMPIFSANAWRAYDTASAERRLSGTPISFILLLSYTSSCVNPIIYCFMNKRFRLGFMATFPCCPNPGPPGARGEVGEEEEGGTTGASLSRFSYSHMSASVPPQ
# Chain of Adrenergic Receptor α1A (ADRA1A) (P35348 whole entry): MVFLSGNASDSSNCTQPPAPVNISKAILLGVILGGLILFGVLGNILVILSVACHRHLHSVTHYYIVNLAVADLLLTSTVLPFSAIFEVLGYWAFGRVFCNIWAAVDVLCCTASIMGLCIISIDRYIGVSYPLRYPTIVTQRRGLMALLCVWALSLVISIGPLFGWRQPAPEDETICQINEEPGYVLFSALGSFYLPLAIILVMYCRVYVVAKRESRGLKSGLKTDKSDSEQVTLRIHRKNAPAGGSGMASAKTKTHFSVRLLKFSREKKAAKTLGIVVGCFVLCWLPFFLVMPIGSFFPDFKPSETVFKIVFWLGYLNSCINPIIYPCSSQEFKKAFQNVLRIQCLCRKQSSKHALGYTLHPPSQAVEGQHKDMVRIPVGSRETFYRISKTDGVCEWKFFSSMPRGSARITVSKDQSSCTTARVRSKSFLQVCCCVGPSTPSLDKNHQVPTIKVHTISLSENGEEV
# Chain of Adenosine Receptor A2A (ADORA2A) (P29274 whole entry): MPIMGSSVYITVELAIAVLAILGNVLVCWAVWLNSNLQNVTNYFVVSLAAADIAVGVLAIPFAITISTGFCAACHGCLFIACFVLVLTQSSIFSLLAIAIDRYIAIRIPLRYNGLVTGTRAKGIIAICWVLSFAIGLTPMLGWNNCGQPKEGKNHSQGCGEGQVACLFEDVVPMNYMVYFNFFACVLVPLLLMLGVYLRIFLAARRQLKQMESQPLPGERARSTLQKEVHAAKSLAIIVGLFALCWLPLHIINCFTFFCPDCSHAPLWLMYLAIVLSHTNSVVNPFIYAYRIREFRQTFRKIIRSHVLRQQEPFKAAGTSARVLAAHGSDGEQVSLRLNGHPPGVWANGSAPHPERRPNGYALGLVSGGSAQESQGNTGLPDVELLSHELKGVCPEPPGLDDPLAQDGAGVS
# Chain of 5-Hydroxytryptamine (Serotonin) Receptor 1B (HTR1B) (P28222 whole entry): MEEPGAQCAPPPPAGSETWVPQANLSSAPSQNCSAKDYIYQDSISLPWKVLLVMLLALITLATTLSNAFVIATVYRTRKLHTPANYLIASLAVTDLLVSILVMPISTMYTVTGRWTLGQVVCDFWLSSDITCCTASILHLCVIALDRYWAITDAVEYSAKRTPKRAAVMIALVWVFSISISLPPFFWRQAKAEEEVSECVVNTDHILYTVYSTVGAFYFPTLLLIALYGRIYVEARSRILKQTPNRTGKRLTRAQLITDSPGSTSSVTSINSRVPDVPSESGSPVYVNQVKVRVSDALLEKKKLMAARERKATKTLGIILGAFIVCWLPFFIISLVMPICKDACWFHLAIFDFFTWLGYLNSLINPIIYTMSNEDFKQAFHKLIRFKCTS
# Chain of Muscarinic acetylcholine Receptor M3 (CHRM3) (P20309 whole entry): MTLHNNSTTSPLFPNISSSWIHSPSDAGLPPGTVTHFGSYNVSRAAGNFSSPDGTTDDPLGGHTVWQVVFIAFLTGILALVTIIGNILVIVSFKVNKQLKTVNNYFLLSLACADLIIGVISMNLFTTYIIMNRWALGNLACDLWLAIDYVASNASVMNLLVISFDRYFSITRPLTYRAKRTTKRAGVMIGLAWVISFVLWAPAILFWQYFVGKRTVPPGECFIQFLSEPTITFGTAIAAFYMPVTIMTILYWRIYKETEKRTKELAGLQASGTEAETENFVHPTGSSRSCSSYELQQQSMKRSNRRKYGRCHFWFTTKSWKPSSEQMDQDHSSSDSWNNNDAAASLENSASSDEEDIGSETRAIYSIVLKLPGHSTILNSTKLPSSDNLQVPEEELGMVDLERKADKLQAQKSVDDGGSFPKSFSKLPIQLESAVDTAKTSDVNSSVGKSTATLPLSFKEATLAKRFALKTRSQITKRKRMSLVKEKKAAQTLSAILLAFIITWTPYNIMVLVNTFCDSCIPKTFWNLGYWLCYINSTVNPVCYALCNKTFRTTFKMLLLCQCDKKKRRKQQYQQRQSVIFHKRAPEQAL
# Chain of Adrenergic Receptor β1 (ADRB1) (P08588 whole entry): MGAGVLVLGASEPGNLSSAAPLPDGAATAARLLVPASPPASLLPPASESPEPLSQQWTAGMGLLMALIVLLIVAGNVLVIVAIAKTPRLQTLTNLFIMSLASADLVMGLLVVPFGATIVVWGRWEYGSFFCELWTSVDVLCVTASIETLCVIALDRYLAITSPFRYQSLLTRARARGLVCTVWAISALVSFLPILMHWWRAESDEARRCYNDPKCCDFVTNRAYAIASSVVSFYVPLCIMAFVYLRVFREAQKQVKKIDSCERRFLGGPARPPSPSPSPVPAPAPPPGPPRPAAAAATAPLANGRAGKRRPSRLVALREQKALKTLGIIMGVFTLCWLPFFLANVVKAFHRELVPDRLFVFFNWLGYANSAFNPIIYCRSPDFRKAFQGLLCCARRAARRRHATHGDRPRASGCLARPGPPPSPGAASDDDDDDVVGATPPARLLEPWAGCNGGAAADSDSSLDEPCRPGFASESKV
smiles,measurement,setting,value
C=CCC1CCC[C@@H](CCC(=O)O)C1=C (stereo partly shown) [Compound 13],cytotoxicity (in words),PC12 cells,not toxic to neurons
same,Emax,[1]; Agonist mode,0%
same,Emax,[1]; Antagonist mode,4.09%
same,Emax,[2]; Agonist mode,1.12%
same,Emax,[2]; Antagonist mode,3.06%
same,Maximal Response,[3]; Agonist mode,24.55%
same,Emax,"[3]; Antagonist mode, read-out: Maximal Response",0%
same,Emax,"[3]; read-out: Maximal Response, Agonist mode",24.5%
same,Emax,[4]; Agonist mode,1.92%
same,Emax,[4]; Antagonist mode,9.29%
same,Emax,[5]; Agonist mode,1.56%
same,Emax,[5]; Antagonist mode,0%
same,Emax,[6]; Agonist mode,11.7%
same,Emax,[6]; Antagonist mode,0%
same,Emax,[7]; Agonist mode,0.13%
same,Emax,[7]; Antagonist mode,8.81%
same,Emax,[8],0%
same,Emax,[9]; Agonist mode,0%
same,Emax,[9]; Antagonist mode,1.05%
same,Emax,[10]; Agonist mode,10.5%
same,Emax,[10]; Antagonist mode,0%
same,Emax,[11]; Agonist mode,6.34%
same,Emax,[11]; Antagonist mode,0%
same,Emax,[12]; Agonist mode,7.89%
same,Emax,[12]; Antagonist mode,0%
same,Emax,[13]; Blocker mode,0.19%
same,Emax,[13]; Opener mode,0%
same,Emax,[14],3.22%
same,Emax,Cyclooxygenase 1 (COX 1),25%
same,Emax,[15],0%
same,Emax,[16],3.53%
